Measurements as given in patent publication US8097585B2, “Methods of treating inflammation by administration of heme oxygenase-1 and products of heme degradation” (priority 2002, dated 2012).
Counter-ions that a name gives are not always drawn.

How the values were obtained:
HO-1 = HO-1 induction during intestinal I/R injury; format: in vivo, LEW rats; conditions: BV treatment
Method: HO-1 Induction During Intestinal I/R Injury. Since HO-1 regulates heme catalysis and BV production, exogenously provided BV may influence endogenous HO-1 induction in BV-treated recipients. In the normal intestine, HO-1 protein expression was absent. Ischemia/reperfusion injury was associated with a gradual increase of HO-1 expression in air-treated grafts, reaching maximum level between 6 and 24 hours following reperfusion.

TNF-alpha = assay: Endotoxic shock (LPS) model, serum TNF-alpha; format: in vivo, Sprague-Dawley rats; conditions: biliverdin i.p. […] 17 h and 1 h prior to and 8 h after LPS 3 mg/kg i.v.
Method: Treatment Protocol. Endotoxin (lipopolysaccharide/LPS; Sigma; E. coli serotype 0128:B7; 3 mg/kg, i.v.) was administered to male Sprague-Dawley, resulting in an acute non-lethal inflammation. In rats, a sublethal dose of LPS results in a moderate lung inflammation characterized by neutrophil accumulation and protein accumulation in the airspace, both markers of lung inflammation. The pro-inflammatory cytokine TNF-alpha increases very rapidly in the serum, peaking by 60-90 minutes. This is followed by increases in IL-10, a prototypical anti-inflammatory cytokine that peaks 8-12 hr later.
Administration of Biliverdin. Biliverdin (Frontier Scientific: prepared in PBS following solubilization in NaOH) was administered i.p. at […] 17 hours prior to, one hour prior to, and eight hours after LPS administration.
Bronchoalveolar Lavage. A bronchoalveolar lavage (BAL) was performed 24 hours after LPS administration. Serum cytokines were measured using commercially available ELISA kits (R&D Systems Inc.) per the manufacturer's instructions. Total protein was determined via a standard Bradford assay based on a standard curve. […] Total cell count was determined as well as differential analysis of cell type and morphology via Diff-Quik® Fixative (American Scientific Products) staining of a sample of the lavagate.

IL-6 = assay: Real time RT-PCR of graft muscularis after SITx, IL-6; format: in vivo, LEW rats
Method: Small Intestinal Transplantation. Orthotopic small intestinal transplantation (SITx) was performed in syngeneic Lewis rats. SITx with caval drainage was performed using a previously described procedure (Murase et al., in Handbook of Animal Models in Transplantation Research, Cramer et al., Eds. CRC Press, Boca Raton, Fla., pp. 203-213 (1994)). […] The graft was perfused via the aortic segment with 5 ml chilled Ringer's lactate solution, and the intestinal lumen was irrigated with 20 ml of cold saline solution containing 0.5% neomycin-sulfate (Sigma, St. Louis, Mo.). End-to-side anastomoses between the graft aorta and the recipient infrarenal aorta, and between the graft portal vein and recipient vena cava, were performed with 10-0 Novafil™ suture. The cold ischemic time was 1 hour. The entire recipient intestine was removed and the enteric continuity was restored by proximal and distal end-to-end intestinal anastomoses. Recipient animals were given 20 mg/day prophylactic cefamandole nafate for 3 postoperative days. Transplanted recipients were given water 3 hours after surgery, and were fed 24 hours after surgery.
(§1) SYBR green real time RT-PCR. The effects of administration of biliverdin on transplant-induced pro-inflammatory and anti-inflammatory gene expression were assessed in muscularis extracts by RT-PCR Biliverdin ([…], i.p.) was administered to both the donor and recipient three hours preoperatively. The muscularis externae was collected from normal intestine and transplanted grafts 4 hours postoperatively and snap frozen in liquid nitrogen. […] Equal aliquots (5 μg) of total RNA from each sample were quantified by spectrophotometry (wavelength […]) and aliquoted at a concentration of 40 ng/μl. Peak mRNA expression was quantified in duplicate by SYBR Green two-step, real-time RT-PCR. […] Real-time PCR data were plotted as the ΔRn fluorescence signal versus the cycle number. […] Quantification of mRNA expression was normalized to GAPDH and calculated relative to control using the comparative CT method (Schmittgen et al., J. Biochem. Biophys. Methods 46(1-2):69-8, 2000). […]

nitric oxide = assay: Serum nitrite/nitrate, SITx with preserved intestine; format: in vivo, LEW rats
Method: Detection of Serum Mediators. Serum samples from the recipients transplanted with preserved intestine were taken at 3 and 12 hours after reperfusion and stored at […] until evaluation. Serum IL-6 was determined using a rat enzyme-linked immunoassay (ELISA) kits as described by the manufacturer (R & D Systems, Inc., Cambridge, Mass.). To monitor the production of nitric oxide, the stable end products of NO metabolism, serum nitrite/nitrate levels, were measured 12 hours after engraftment using a commercially available test kit (Cayman, Ann Arbor, Mich.). In this assay system, nitrate is reduced to nitrite using nitrate reductase, and the nitrite concentration of the sample is subsequently measured using the Griess reaction.

MnSOD = assay: Real time RT-PCR of graft muscularis after SITx, MnSOD; format: in vivo, LEW rats; conditions: BV treatment
Method: Small Intestinal Transplantation. Orthotopic small intestinal transplantation (SITx) was performed in syngeneic Lewis rats. SITx with caval drainage was performed using a previously described procedure (Murase et al., in Handbook of Animal Models in Transplantation Research, Cramer et al., Eds. CRC Press, Boca Raton, Fla., pp. 203-213 (1994)). […] The graft was perfused via the aortic segment with 5 ml chilled Ringer's lactate solution, and the intestinal lumen was irrigated with 20 ml of cold saline solution containing 0.5% neomycin-sulfate (Sigma, St. Louis, Mo.). […]
as §1, with “preoperatively.” for “preoperatively. The muscularis externae was collected from normal intestine and transplanted grafts 4 hours postoperatively and snap frozen in liquid nitrogen.”

## C=CC1=C(C)/C(=C/C2=NC(=C\c3[nH]c(/C=C4\NC(=O)C(C)=C4C=C)c(C)c3CCC(=O)O)/C(CCC(=O)O)=C2C)NC1=O [biliverdin, biliverdin dihydrochloride]
HO-1
  intestinal HO-1 production: did not have a significant effect
TNF-alpha
  levels of LPS-induced TNF-alpha: reduced
IL-6; BV 50 mmol/kg i.p. donor and recipient, 4 hours, versus saline-treated graft
  reduction of IL-6 mRNA expression: 24%
IL-6; BV treatment of unoperated animals
  basal mRNA expression of any of the cytokines: did not alter
Nitric oxide; BV treated controls (no transplant)
  mean serum nitrite/nitrate (NO) level: 18.4 ± 3.2 µM
Nitric oxide; SITx, 12 hours after engraftment
  decrease of transplantation-induced serum NO levels: 53%
Nitric oxide; SITx, 12 hours after engraftment, untreated 34.4±15.2
  serum NO level: 18.2 ± 3.9 µM
MnSOD
  MnSOD expression in the graft: significantly reduced
